Results as given in patent EP0293814A1, “Mono- and polyhydroxyacyl derivatives of polyoxygenated labdanes, a process for their production and their use as drugs” (HOECHST AKTIENGESELLSCHAFT, priority 1987, dated 1988).

Assay: Lowering of intraocular pressure, Schiotz tonometry
Assay type: in vivo
From the text: Die Labdane der vorliegenden Anmeldung eignen sich zur Behandlung des erhöhten Augeninnendrucks, weil sie, wie mit der Schiotz-Tonometrie nachgewiesen, die Eigenschaft besitzen, den Augeninnendruck herabzusetzen (s. Capriol. J., Sears, M., Lancet, 1, (1983) 958 - 96).
Die Wirksamkeit einiger repräsentativer Verbindungen gemäß der Erfindung ist als prozentuale Senkung des Augeninnendrucks ausgedrückt und in Tab. 2 dargestellt.

| Structure (SMILES) | Senkung des Augeninnendrucks (%) (Konzentration 2 %) | Senkung des Augeninnendrucks (%) (Konzentration 0,1 %) | Senkung des Augeninnendrucks (%) (Konzentration 0,5 %) | Senkung des Augeninnendrucks (%) (Konzentration 0,25 %) | Erniedrigung des Augeninnendrucks (in words, compared with the other substances of the invention (Tab. 2)) |
| --- | --- | --- | --- | --- | --- |
| C=C[C@@]1(C)CC(=O)[C@]2(O)[C@@]3(C)[C@@H](O)CCC(C)(C)[C@@H]3[C@H](O)[C@H](OC(=O)COCC)[C@@]2(C)O1 [compound 1] | 31 | – | – | – | – |
| C=C[C@@]1(C)CC(=O)[C@]2(O)[C@@]3(C)[C@@H](O)CCC(C)(C)[C@@H]3[C@H](OC(=O)COCC)[C@H](O)[C@@]2(C)O1 [compound 2] | 20 | – | – | – | – |
| C=C[C@@]1(C)CC(=O)[C@]2(O)[C@@]3(C)[C@@H](OC(=O)COC=O)CCC(C)(C)[C@@H]3[C@H](O)[C@H](OC(=O)COC=O)[C@@]2(C)O1 [compound 5] | 26 | – | – | – | – |
| C=C[C@@]1(C)CC(=O)[C@]2(O)[C@@]3(C)[C@@H](O)CCC(C)(C)[C@@H]3[C@H](O)[C@H](OC(=O)[C@H](O)CO)[C@@]2(C)O1 [compound 7] | 27 | 17 | 25 | 24 | wesentlich besser erniedrigt als die anderen Substanzen der Erfindung |
